Data: ChEMBL document CHEMBL4706537, “Suramin derivatives play an important role in blocking the interaction between FGF1 and FGFRD2 to inhibit cell proliferation” (Eur J Med Chem, 2020)
Calls of active or inactive are those of the source. The rule behind the calls is not given here.

What was measured:
MCF7 = assay: Cytotoxicity against FGF1-stimulated human MCF7 cells cultured in serum-starved media assessed as reduction in cell viability incubated for 48 hrs by WST-1 assay; format: functional, cell-based; conditions: MCF7, 48 h
[1] = target: T1, Fibroblast growth factor 1/Fibroblast growth factor receptor 2 (Homo sapiens) (UniProt P05230+P21802); assay: Inhibition of FGF1/FGFR2 D2 domain interaction in human MCF7 cells assessed as decrease in cell proliferation at 0.1 to 1 uM by WST-1 assay; format: cell-based; conditions: dose 0.1-1 µM
[2] = target: T1, Fibroblast growth factor 1/Fibroblast growth factor receptor 2 (Homo sapiens); assay: Inhibition of FGF1/FGFR2 D2 domain interaction in human MCF7 cells assessed as decrease in cell count at 0.1 to 1 uM by WST-1 assay; format: cell-based; conditions: dose 0.1-1 µM

T1 sequence (P05230 whole entry, looked up, the tested form may be a part): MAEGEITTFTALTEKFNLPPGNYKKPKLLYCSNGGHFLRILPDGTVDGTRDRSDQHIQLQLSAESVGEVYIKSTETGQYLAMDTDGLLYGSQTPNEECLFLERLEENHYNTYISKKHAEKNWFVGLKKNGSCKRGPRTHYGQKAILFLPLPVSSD
T1 sequence (P21802 whole entry, looked up, the tested form may be a part): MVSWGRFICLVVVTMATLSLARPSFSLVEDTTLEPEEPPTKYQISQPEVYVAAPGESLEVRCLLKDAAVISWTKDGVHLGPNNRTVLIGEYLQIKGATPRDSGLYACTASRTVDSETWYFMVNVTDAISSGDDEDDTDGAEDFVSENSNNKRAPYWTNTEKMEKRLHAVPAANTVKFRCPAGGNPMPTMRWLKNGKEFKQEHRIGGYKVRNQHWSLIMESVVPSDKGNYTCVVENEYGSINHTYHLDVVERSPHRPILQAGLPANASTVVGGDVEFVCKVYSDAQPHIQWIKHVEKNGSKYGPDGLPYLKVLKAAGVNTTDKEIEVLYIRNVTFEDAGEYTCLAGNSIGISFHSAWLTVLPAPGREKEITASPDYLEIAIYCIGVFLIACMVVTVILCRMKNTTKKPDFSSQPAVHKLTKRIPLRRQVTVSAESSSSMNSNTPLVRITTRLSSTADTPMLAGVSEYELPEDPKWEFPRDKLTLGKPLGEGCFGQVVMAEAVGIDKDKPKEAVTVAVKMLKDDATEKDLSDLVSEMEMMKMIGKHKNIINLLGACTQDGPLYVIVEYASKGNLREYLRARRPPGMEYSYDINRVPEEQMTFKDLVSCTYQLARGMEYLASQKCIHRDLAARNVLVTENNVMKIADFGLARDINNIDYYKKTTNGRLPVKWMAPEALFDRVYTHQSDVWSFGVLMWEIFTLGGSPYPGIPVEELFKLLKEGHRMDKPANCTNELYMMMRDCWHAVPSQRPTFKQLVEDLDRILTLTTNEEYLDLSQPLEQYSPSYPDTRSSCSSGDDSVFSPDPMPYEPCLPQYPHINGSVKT

inhibition [1]	inhibition [2]	Compound	IC50 (MCF7)
Active		Cc1ccc(C(=O)Nc2ccc(S(=O)(=O)O)c3cc(S(=O)(=O)O)cc(S(=O)(=O)O)c23)cc1NC(=O)c1cccc(NC(=O)Nc2cccc(C(=O)Nc3cc(C(=O)Nc4ccc(S(=O)(=O)O)c5cc(S(=O)(=O)O)cc(S(=O)(=O)O)c45)ccc3C)c2)c1 [SURAMIN]	154 µM
Active	Active	O=C(Nc1ccc(C(=O)Nc2ccc(C(=O)Nc3cccc4cc(S(=O)(=O)O)ccc34)cc2)cc1)Nc1ccc(C(=O)Nc2ccc(C(=O)Nc3cccc4cc(S(=O)(=O)O)ccc34)cc2)cc1	619 µM
